Earlier results as cited in patent US20210205199A1, “Dermatological Cosmetic Composition Comprising an SDKP Peptide or an Analog Thereof” (RPM Dermatologie, priority 2016, published 2021).

Conditions: result in words; background

With “acetyl-serine-aspartic acid-lysine-proline-OH [Ac-SDKP-OH]” as the substance, how does the “Sensitivity to enzymatic hydrolysis” value read?
The value was “very sensitive to enzymatic hydrolysis”.

And the Stability to hydrolysis?
Its Stability to hydrolysis is “hydrolyzes very easily”.
